“Also recorded” adds a separate entry of the source. Structures can show the parent of a compound that is named as a salt. Where two headings read alike, the source gives them in different places. Each block holds one molecule with its values, some of them ahead of it.
Experiments:
[1] = Accelerated closed-vial stability study; format: physicochemical; settings: 40° C., 75% RH
[2] = Variable-temperature XRPD; format: physicochemical; settings: heated up to 100° C.
Experimental: In this application, X-ray powder diffraction (XRPD) data were collected using a BrukerD8 Advance diffractometer; parameters are as follows: Cu radiation; wavelength: 1.54 Å; Current voltage: 40 KV, 40 mA; Scan range: 3˜40° 2θ.

[3] = 40° C., 75% RH; for Assay (%) / Color / XRPD: open vial
Experimental: The samples were placed under accelerated open-vial conditions (40° C., 75% RH, and open vial) to assess the stability of both samples.

[4] = pH 1.2
[5] = physchem; settings: thermodynamic from solid
[6] = physchem; settings: thermodynamic from solid, Instantaneous Solubility
[7] = cited from earlier work
[8] = sealed 5 mL vial in self-sealing bag
[9] = pH 1.2, simulated gastric fluid

- remains stable for at least (time) ([1]; 5 mL vial packed in a self-sealing bag (sealed)): at least 1 month
- crystal form on heating (variable-temperature XRPD) [2]: remains unchanged
- remains stable for at least (time) ([3]; open): at least 21 days
- Assay (%) ([3]; 0 day): 98.79%
- Color ([3]; 0 day): white
- XRPD ([3]; 0 day): Form A
- Assay (%) ([3]; 21 days): 98.44%
- Color ([3]; 21 days): white
- XRPD ([3]; 21 days): Form A
- Instantaneous Solubility [4]: >50 mg/mL
- solubility at 4 hrs [5, 9]: > 60 mg/mL
- solubility at 12 hrs [5, 9]: > 60 mg/mL
- solubility thermodynamic [5, 9]: > 60 mg/mL
- solubility at 4 hrs ([5]; pH 4, aqueous buffer): 67.9 mg/mL
- solubility at 12 hrs ([5]; pH 4, aqueous buffer): 67 mg/mL
- solubility thermodynamic ([5]; pH 4, aqueous buffer): > 60 mg/mL
- solubility at 4 hrs ([5]; water): 70.7 mg/mL
- solubility at 12 hrs ([5]; water): 69.4 mg/mL
- solubility thermodynamic ([5]; water): > 60 mg/mL
- solubility [6, 9]: > 80 mg/mL
- solubility ([6]; pH 4, aqueous buffer): > 50 mg/mL
- solubility ([6]; water): > 50 mg/mL
SMILES: C=CC(=O)Nc1cc(Nc2nccc(-n3cc(CN(C)C)c(-c4ccccc4)n3)n2)c(OC)cc1N1CCOCC1 [Form A, lazertinib mesylate]
- change in assay value [1, 8]: minimal change; also recorded: no significant changes
- color before and after storage [1, 8]: white; also recorded: no significant changes
- crystal form before and after storage [1, 8]: remains unchanged; also recorded: no significant changes

- Assay (%) ([3]; 0 day): 98.73%
- Color ([3]; 0 day): yellow
- XRPD ([3]; 0 day): Form I
- Assay (%) ([3]; 21 days): 70.35%
- Color ([3]; 21 days): pink
- XRPD ([3]; 21 days): Form I
- change in assay value (in words) ([3]; open, 21 days): significant decrease
- change in color (in words) ([3]; open, 21 days): from yellow to pink
SMILES: C=CC(=O)Nc1cc(Nc2nccc(-n3cc(CN(C)C)c(-c4ccccc4)n3)n2)c(OC)cc1N1CCOCC1 [Form I, lazertinib mono-mesylate, reference compound]
- solubility ([7]; pH 1.2): 14.9 mg/mL
- solubility ([7]; pH 4): 20.9 mg/mL

Reference: US20240270733A1, “HYDRATE FORM OF LAZERTINIB MESYLATE, PREPARATION METHOD THEREOF AND USE THEREOF” (HANGZHOU SOLIPHARMA CO., LTD., priority 2021, published 2024)
